Reference: US9150581B2, “Nicotinic receptor compounds” (priority 2011, dated 2015)
Values joined by “and” are separate entries in the source; they are usually repeats but may differ in a detail not shown here. Identical values can stand only once. Counter-ions that a name gives are not always drawn. Like-named read-outs stand apart in the source and are kept apart here.

Key:
[1] = tested on: Male Sprague-Dawley rats; conditions: for Blockade of nicotine's hypertensive effects: given prior to 1.78 mg/kg nicotine, RTI-154 10 mg/kg, DHβE 5.6 mg/kg
Method: Male Sprague-Dawley rats (approximately 300 g) were obtained from Harlan, Inc. (Indianapolis, Ind.) and group-housed upon arrival. Food and water were freely available for all rats at all times. Housing and experimental rooms were maintained on a 12 h light/dark cycle with lights on at 7:00 AM with an average temperature of 21° C.
Surgical Procedures. To measure changes in heart rate and mean arterial pressure, rats were implanted with telemetric transmitters (TA11PAC40 or TL11M2-C50-PXT, Data Sciences International, Transoma Medical Inc., St. Paul, Minn., USA) under ketamine (90 mg/kg, i.p.) and xylazine (10 mg/kg, i.p.) anesthesia. An incision is made in the skin approximately 1 in to the left or right of the spine and over the left or right thigh to expose the femoral artery. The transmitter is placed into the incision on the dorsal side and into a subcutaneous pocket (made by separating the connective tissue between the skin and muscle) on the side of the abdomen. This positioning prevents the rats from manipulating the incision site and gaining access to the transmitter. The catheter extending from the base of the transmitter is threaded subcutaneously, placed 3 cm into the femoral artery, and secured with suture. Incisions were closed with 5.0 Ethicon nylon monofilament suture. Following surgery, rats were singly-housed and monitored for at least 7 days for signs of recovery (normal eating, drinking, and defecating patterns) prior to experimentation. All rats continued to have free access to food and water at all times.
Telemetry System. The system consists of battery-operated transmitters surgically implanted (described above), Physiotel® receivers, the DSI Data Exchange Matrix, and the Dataquest A.R.T. system, which collects and stores digital data from the receiver onto a computer (Data Sciences International, Transoma Medical Inc., St. Paul, Minn., USA). Blood pressure and heart rate data were analyzed by the Dataquest A.R.T. Gold Analysis 3.01 software.
At the start of an experiment, rats' home cages were placed on top of the receivers, and baseline data was collected for at least 1 h to allow heart rate and blood pressure to return to resting levels. All rats were given a saline injection to ensure that they are habituated to the injection and handling procedure on the test day. After heart rate and blood pressure returned to resting levels again, rats were injected with a treatment, consisting either of a single drug dose or a pretreatment drug administered 15 min prior to a test drug. Data was collected for at least 2 h following the last injection. All injections were administered subcutaneously (s.c.) in a volume of 1 ml/kg.
Each rat was used to evaluate multiple experimental conditions, such that each rat may receive as many as 4-6 different treatments, one per week with at least 6 days between drug exposures. […] Once the rats weigh approximately 450 g (body weight at time of transmitter implant: 300-350 g), the rat is no longer used for experiments, and the transmitter is removed.
Data were collected throughout baseline, before, and after drug treatments. The analysis program calculated an average heart rate and mean arterial pressure (MAP) every 10 sec. These 10 secepochs are then averaged over 1 min per rat, and data from at least 6 rats were averaged for each treatment group.

[2] = tested on: Male Sprague-Dawley rats; assay type: in vivo, rat; conditions: for Nicotine-like discriminative stimulus effects: compound alone (FIG. 3); for Shift of discriminative stimulus dose-effect curve of small dose of nicotine: small training dose of nicotine
Method: A drug discrimination assay was performed to measure the relevant effects of nicotine as it influences tobacco use and abuse. In a drug discrimination assay, food restricted rates are trained to make one response (select one of two nose-poke apertures in the test chamber) following administration of a particular drug, and a different response (select the other aperture) following administration of saline. The appropriate response is followed by delivery of food, and there is no cue as to which aperture will result in food delivery other than the presence or absence of the drug. Once trained, the animals respond on the “drug-associated” aperture following drug administration and on the “saline-associated” aperture following saline administration. In addition, administration of drug doses that are smaller than the training dose produce intermediate responses on the drug-associated aperture such that monotonically increasing dose-response curves can be generated in drug discrimination assays.
Male Sprague-Dawley rats were obtained from Harlan, Inc (Indianapolis, Ind.) and singly housed in polycarbonate cages with water continuously available. All rats weighed approximately 280-290 gms at the start of the experiment. A food-restricted diet of Purina rodent food allowed the animals to grow but maintain motivation to respond to earn food pellets. A 12 hr light-dark cycle turned the lights on at 7:00 am. Standard operant conditioning chambers (ENV-008, Med-Associates, St Albans, Vt.) were used for establishing and evaluating the nicotine discrimination. Each chamber contains two nose-poke devices with apertures containing yellow LED lights on either side of a dipper capable of delivering 50 μl of fluid into a third opening.
Initially, each rat was trained to insert its nose into one of the apertures and received vanilla-flavored Ensure as a consequence. During discrimination training, rats designated in the small dose group were injected with either saline or 0.32 mg/kg of nicotine. Ten consecutive responses on the appropriate lever (one side following saline administration; the other side following nicotine administration) was followed by presentation of the Ensure for 10 s, followed by a 10 s timeout. Selection of the incorrect lever, and completion of the 10 consecutive responses in this lever results in a 10 s timeout. Criteria for learning the discrimination are 1) responding on the first FR of the session is completed on the injection appropriate aperture; 2) >85% of the total session responses are made on the injection-appropriate aperture.
Each session was divided into several components of 25 min duration. Following an injection, the first five minutes of each component were black out, and the stimulus lights were illuminated for the remaining 20 min, during which injection-appropriate responses were reinforced.
One to four components comprised daily sessions Animals were injected with saline or nicotine prior to the start of the session, or following one or more of the […] components. Possible injection conditions were (S=saline, N=nicotine) S—S—S—S; N; S—N; S—S—N; S—S—S—N. Nicotine administration is always given in the final component if it is given at all.
If a potential antagonist was given, it was administered prior to the session at a time determined by earlier studies to be sufficient for peak effects to be established. The session components then comprised increasing doses of nicotine, each given before consecutive blackout periods. No more than two antagonist sessions were given each week, and once each month a nicotine dose-response curve was determined to assure no changes in sensitivity to nicotine. Full generalization to the nicotine discriminative cue is defined by >85% responding on the drug-associated aperture and completing at least one FR.
A second, large-nicotine trained group of rats were treated in an identical manner except that their training dose of nicotine is 1.78 mg/kg. […]

[3] = target: α4β2 nAChR (Rattus norvegicus (Rat), UniProt P09483+P12390); assay: Inhibition of [3H]epibatidine binding at the α4β2 nAChR in male rat cerebral cortex; conditions: αβ [3H]Epibatidine (Ki, nM)
α4β2 nAChR, sequence (P09483 31-630 limits assumed): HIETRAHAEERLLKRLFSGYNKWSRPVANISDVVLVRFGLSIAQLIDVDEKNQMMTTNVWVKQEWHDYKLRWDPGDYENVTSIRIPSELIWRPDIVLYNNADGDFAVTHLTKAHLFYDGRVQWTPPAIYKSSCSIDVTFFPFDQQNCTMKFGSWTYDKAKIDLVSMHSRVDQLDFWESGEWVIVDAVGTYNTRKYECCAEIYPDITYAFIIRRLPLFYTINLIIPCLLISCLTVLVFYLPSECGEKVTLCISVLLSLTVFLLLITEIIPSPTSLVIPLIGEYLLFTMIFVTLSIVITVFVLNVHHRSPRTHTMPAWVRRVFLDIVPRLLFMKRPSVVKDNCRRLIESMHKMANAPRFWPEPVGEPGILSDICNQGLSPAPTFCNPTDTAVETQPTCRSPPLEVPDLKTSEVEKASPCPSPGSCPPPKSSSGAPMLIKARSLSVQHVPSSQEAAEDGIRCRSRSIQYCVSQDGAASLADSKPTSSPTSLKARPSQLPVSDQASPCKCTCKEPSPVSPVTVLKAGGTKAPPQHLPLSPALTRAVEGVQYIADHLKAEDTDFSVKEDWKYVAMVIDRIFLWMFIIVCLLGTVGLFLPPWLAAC
α4β2 nAChR, sequence (P12390 25-500 limits assumed): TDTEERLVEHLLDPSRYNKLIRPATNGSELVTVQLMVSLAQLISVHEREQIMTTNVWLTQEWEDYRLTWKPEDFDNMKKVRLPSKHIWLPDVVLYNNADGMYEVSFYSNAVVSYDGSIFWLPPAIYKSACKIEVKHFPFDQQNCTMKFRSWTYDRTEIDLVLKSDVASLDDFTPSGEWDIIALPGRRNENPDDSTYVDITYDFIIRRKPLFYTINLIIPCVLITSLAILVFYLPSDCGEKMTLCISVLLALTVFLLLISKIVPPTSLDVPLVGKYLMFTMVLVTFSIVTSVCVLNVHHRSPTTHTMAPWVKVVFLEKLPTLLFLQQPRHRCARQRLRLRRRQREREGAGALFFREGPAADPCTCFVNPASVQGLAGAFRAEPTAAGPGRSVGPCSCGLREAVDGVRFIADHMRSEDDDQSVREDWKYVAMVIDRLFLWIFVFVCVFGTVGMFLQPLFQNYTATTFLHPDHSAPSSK

[4] = tested on: mice; assay: Tail-flick test (antinociception); assay type: in vivo, mouse; conditions: @ 10 mg/kg, sc
Method: (§1) In the tail-flick method of D'Amour and Smith, (D'Amour, F. E.; Smith, D. L. J. Pharmacol. Exp. Ther. 1941, 72, 74-79), the tail is exposed to a heat lamp and the amount of time taken for the animal to move (flick) its tail away from the heat is recorded. […] Mice were placed into a 10-cm wide glass cylinder on a hot plate (Thermojust Apparatus) maintained at 55.0° C. Two control latencies at least 10 min apart were determined for each mouse. […] The reaction time was scored when the animal jumped or licked its paws. The mice were tested 5 min after subcutaneous (sc) injections of nicotinic ligands for the dose-response determination. Antinociceptive response was calculated as percentage of maximum possible effect (% MPE, where % MPE=[(test−control)/(maximum latency−control)×100]).

[5] = tested on: mice; assay: Hot-plate test (antinociception); assay type: in vivo, mouse; conditions: @ 10 mg/kg, sc
Method: as §1

[6] = tested on: mice; assay: Hypothermia (rectal temperature); assay type: in vivo, mouse; conditions: @ 10 mg/kg, sc
Method: (§2) Interruptions of the photocell beams (two banks of eight cells each) were then recorded for the next 10 min. Data were expressed as number of photocell interruptions. Rectal temperature was measured by a thermistor probe (inserted 24 mm) and digital thermometer (Yellow Springs Instrument Co., Yellow Springs, Ohio). […] The difference in rectal temperature before and after treatment was calculated for each mouse. The ambient temperature of the laboratory varied from 21 to 24° C. from day to day.

[7] = tested on: mice; assay: Spontaneous activity (photocell activity cages); assay type: in vivo, mouse; conditions: sc
Method: as §2

[8] = tested on: mice; assay: Antagonism of nicotine antinociception, tail-flick; assay type: in vivo, mouse; conditions: mice pretreated sc 10 min before nicotine 2.5 mg/kg sc
Method: as §1
(§3) Nicotine was administered at a dose of 2.5 mg/kg, sc (an ED84 dose), and mice were tested 5 min later. ED50 and AD50 values with 95% confidence limits were determined.

[9] = tested on: mice; assay: Antagonism of nicotine antinociception, hot-plate; assay type: in vivo, mouse; conditions: for AD50 Hot-Plate: mice pretreated sc 10 min before nicotine 2.5 mg/kg sc; for Antagonism Hot-Plate, % at dose: before nicotine 2.5 mg/kg sc
Method: as §1, §3

[10] = tested on: Male ICR adult mice; assay type: in vivo, mouse; conditions: mouse, in vivo
[11] = listed as (±)-154, hydrochloride

Clc1ccc(C2CC3CCC2N3)cn1 (single isomer, unassigned; (-)) [(−)-epibatidine, epibatidine]
Effect on blood pressure ([1]; rats, s.c., compound alone): substantial increases in blood pressure | Nicotine-like discriminative stimulus effects [2]: extremely potent full nicotine-like agonist

CO[C@H]1CC=C2CCN3CCC4=C(CC(=O)OC4)[C@]23C1 [DHβE, dihydro-beta-erythroidine]
Blockade of nicotine's hypertensive effects ([1]; rats): did not block | Cardiovascular effects (heart rate and mean arterial pressure) ([1]; rats, s.c., compound alone): no cardiovascular effects | Effect on blood pressure ([1]; rats, s.c., compound alone): no changes in blood pressure | Effect on rate-decreasing effects of nicotine [2]: did not antagonize | Shift of discriminative stimulus dose-effect curve of small dose of nicotine [2]: parallel rightward shifts | Shift of large dose-nicotine dose-response curve ([2]; training dose of nicotine 1.78 mg/kg): much less robust rightward shifts

CNC1(C)C2CCC(C2)C1(C)C (stereo not drawn) [Mecamylamine, mecamylamine]
Effect on rate-decreasing effects of nicotine [2]: parallel rightward shift | Shift of discriminative stimulus dose-effect curve of small dose of nicotine [2]: rightward and downward shift

Fc1ncc(C2CC3CCC2N3)cc1-c1ccc(C(F)(F)F)cc1 (stereo not drawn) [RTI-7527-153, 2-(5-(4-Trifluoromethane-phenyl)-6-fluoro-pyridin-3-yl)-7-aza-bicyclo[2.2.1]heptane hydrochloride]
Ki [3]: 0.44 ± 0.05 nM | Tail-Flick, % effect at dose [4]: 4% @ 10 | Hot-Plate, % effect at dose [5]: 6% @ 10 | Hypothermia, % effect at dose [6]: 0% @ 10 | Spontaneous Activity, % effect at dose ([7]; @ 10 mg/kg): 5% @ 10 | AD50 Tail-Flick [8]: 0.038 mg/kg | AD50 Hot-Plate [9]: 6 mg/kg

CS(=O)(=O)c1ccc(-c2cc(C3CC4CCC3N4)cnc2F)cc1 (stereo not drawn) [RTI-7527-154, 2-(5-(4-Methanesulphonyl-phenyl)-6-fluoro-pyridin-3-yl)-7-aza-bicyclo[2.2.1]heptane hydrochloride]
Ki [3]: 0.17 nM and 0.08 nM | Tail-Flick, % effect at dose [4, 11]: 6% @ 10 and 5% @ 10 | Hypothermia, % effect at dose [6, 11]: 1% @ 10 and 1.2% @ 10 | Spontaneous Activity, % effect at dose ([7]; @ 5 mg/kg): 0% @ 5; | Antagonism Hot-Plate, % at dose ([9]; @ 5000 μg/kg): 40% @ | AD50 Hot-Plate [9]: 2.6 mg/kg | Blockade of development of nicotine-induced CPP [10]: totally blocked | Preference or aversion induced by compound itself in CPP [10]: did not induce significant preference or aversion | Blockade of nicotine's hypertensive effects ([1]; rats): did not block | Cardiovascular effects (heart rate and mean arterial pressure) ([1]; rats, s.c., compound alone): no cardiovascular effects | Effect on rate-decreasing effects of nicotine [2]: did not, however, alter the potency of nicotine | Effect on rates of responding ([2]; compound alone): did not suppress ongoing rates of responding | Nicotine-like discriminative stimulus effects [2]: no efficacy

N#Cc1ccc(-c2cc(C3CC4CCC3N4)cnc2F)cc1 (stereo not drawn) [RTI-7527-155, 2-(5-(4-Cyano-phenyl)-6-fluoro-pyridin-3-yl)-7-aza-bicyclo[2.2.1]heptane hydrochloride]
Ki [3]: 0.19 ± 0.012 nM | Tail-Flick, % effect at dose [4]: 4% @ 10 | Hot-Plate, % effect at dose [5]: 18% @ 10 | Hypothermia, % effect at dose [6]: 0% @ 10 | Spontaneous Activity, % effect at dose ([7]; @ 10 mg/kg): 0% @ 10 | AD50 Tail-Flick [8]: 0.006 mg/kg | Antagonism Hot-Plate, % at dose ([9]; @ 10000 μg/kg): 24% @

CN1CCCC1c1cccnc1 (stereo not drawn) [nicotine]
Effect on blood pressure ([1]; rat, in vivo, sc): substantial increases in blood pressure

α-conotoxin AUIB
Blockade of development of nicotine reward in the CPP test [10]: blocked the development of nicotine reward
